The test system of the test is M. tuberculosis H37Rv growth inhibition with meropenem. In words: dose response, H37Rv, with and without meropenem (AID 434987).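 Also: growth over 7 days at 37 °C before Alamar Blue read on day 9.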
The mark [1] stands for this setting: M. tuberculosis H37Rv growth inhibition, measured here: IC50 without meropenem.
Setting [2] is: M. tuberculosis H37Rv growth inhibition, measured here: IC90 without meropenem.
Where [3] appears, read: measured here: IC90 with meropenem.

Activity calls are given as the source filed them. No rule for the calls is given here.

The record followed here is PubChem BioAssay AID434987 (Southern Research Specialized Biocontainment Screening …, 2010).

As a reminder, the IC50 is the concentration at which inhibition is half-maximal. Usually IC90 stands for the point of the concentration-response curve where the effect stands at 90%. Low values mean greater potency, high ones weaker potency.

With `Cc1ccc(C(=O)N/C(=C\c2ccc(-c3ccc(Cl)cc3)o2)C(=O)NCCCN(C)C)cc1`, the IC50 was 22.4 µM (inactive). Moreover, the IC50 under setting [1] turned out to be 25.2 µM. Moreover, the 90% effect concentration (IC90) under setting [2] was 28.3 µM. The molecule also showed an IC90 under setting [3] of 23.7 µM.
The corresponding values for `COc1ccc(C(=O)NC(=S)Nc2ccc(S(=O)(=O)Nc3cc(C)on3)cc2)cc1OC` are 13.8 µM, 36.5 µM, more than 100 µM and 29 µM.
On to `OCCCc1cn(-c2ccccc2)c2ccccc12`, for which the IC50 is 12.4 µM. The IC50 under setting [1] is more than 100 µM. Further, under setting [2], the IC90 is more than 100 µM. This molecule showed an IC90 under setting [3] of 60.8 µM.
For the molecule `O=C(Cc1ccccc1)NC(=S)Nc1ccc(N2CCCCC2)cc1`, the IC50 is > 100 µM (inactive). The molecule further yielded an IC50 under setting [1] of more than 100 µM. Under setting [2], this molecule yielded an IC90 of more than 100 µM. In addition, the IC90 under setting [3] is more than 100 µM.
`CN(C)/N=C/c1ccc(/C=N/NC(N)=S)o1`: the IC50 is 15.2 µM. Also, the IC50 under setting [1] was 90.8 µM. Further, the IC90 under setting [2] was more than 100 µM. Under setting [3], this molecule had an IC90 of 43.3 µM.
The corresponding values for `COc1ccc([N+](=O)[O-])cc1NS(=O)(=O)c1ccc(Cl)c(C(=O)Nc2sc3c(c2C#N)CCCCC3)c1` are > 100 µM (inactive), more than 100 µM, more than 100 µM and more than 100 µM.
On the same counts, the results for `CCOC(=O)c1c(C)[nH]c(C(=O)COC(=O)CCC2CCCC2)c1C` are > 100 µM (inactive), more than 100 µM, more than 100 µM and more than 100 µM.
The corresponding values for `COc1cc(NC(=O)c2cccc(Cl)c2)c(OC)cc1NC(=O)CN1CCCCC1` are 7.42 µM, 23.7 µM, 61.4 µM and 75.5 µM.
As for `CC(=O)Nc1ccc(Nc2ncc([N+](=O)[O-])c(Nc3ccc(NC(C)=O)cc3)n2)cc1`, the IC50 is 0.423 µM. Under setting [1], this molecule yielded a half-inhibitory concentration (IC50) of 2.43 µM. Under setting [2], this molecule yielded an IC90 of more than 100 µM. The same molecule displayed a 90% effect concentration (IC90) under setting [3] of 45.5 µM.
On the same counts, the results for `COc1cc(NC(=S)NC(=O)c2cccs2)ccc1NC(=O)C(C)C` are > 100 µM (inactive), more than 100 µM, more than 100 µM and more than 100 µM.
The corresponding values for `Fc1ccc(C2Nc3cccc4cccc(c34)N2)cc1` are > 100 µM (inactive), more than 100 µM, more than 100 µM and more than 100 µM.
The corresponding values for `COC(=O)c1c(C)n(-c2ccccc2)c2ccc(O)cc12` are 1.53 µM, more than 100 µM, more than 100 µM and more than 100 µM.
Turning to `COc1cccc(/C=N/NC(=O)NC23CC4CC(CC(C4)C2)C3)c1O`, the concentration for half-maximal inhibition (IC50) was 2.93 µM. The IC50 under setting [1] was 46.9 µM. For the same molecule, the IC90 under setting [2] was more than 100 µM. For the same molecule, the IC90 under setting [3] stood at 26.8 µM.
On the same counts, the results for `Cc1cc(=S)nc(-c2ccccn2)[nH]1` are 13.1 µM, 48.3 µM, 50.4 µM and 19.7 µM.
The corresponding values for `CCOC(=O)C1CCN(c2ccc(C(N)=O)cc2[N+](=O)[O-])CC1` are 16.3 µM, 55.2 µM, more than 100 µM and more than 100 µM.
On the same counts, the results for `O=C1S/C(=C\C=C\c2ccco2)C(=O)N1c1ccccc1` are 14.7 µM, 43.5 µM, more than 100 µM and 77.6 µM.
In the case of `CCN(CCNC(=O)Nc1ccc(Cl)cc1)c1ccccc1`, the IC50 was > 100 µM (inactive). The same molecule yielded an IC50 under setting [1] of more than 100 µM. Further, the IC90 under setting [2] was more than 100 µM. Under setting [3], this molecule showed an IC90 of more than 100 µM.
For the molecule `CCOC(=O)NC1c2ccccc2Oc2ccccc21`, the IC50 was 37.6 µM. Besides, the IC50 under setting [1] was more than 100 µM. Under setting [2], the IC90 is more than 100 µM. In addition, under setting [3], the IC90 is more than 50 µM.
Consider `COc1ccc(C2CC(c3c(-c4ccccc4)c4cc(Cl)ccc4[nH]c3=O)=NN2S(C)(=O)=O)cc1` (stereo not given), for which the IC50 was > 100 µM (inactive). Under setting [1], the IC50 is more than 100 µM. Moreover, the IC90 under setting [2] was more than 100 µM. The IC90 under setting [3] is more than 100 µM.
As for `O=C(CCSc1ccc(Cl)c(Cl)c1)NC12CC3CC(CC(C3)C1)C2`, the IC50 is 11.6 µM. In addition, the IC50 under setting [1] was 66.3 µM. The same molecule gave an IC90 under setting [2] of more than 100 µM. Under setting [3], this molecule yielded an IC90 of 12.3 µM.
On the same counts, the results for `Cc1nn(-c2ccccc2)c(N2CCCC2)c1/C=C1\N=C(c2ccc(F)cc2)OC1=O` are 10.7 µM (inactive), 23.4 µM, 26.8 µM and 22.9 µM.
On the same counts, the results for `COc1ccc(-c2nn(-c3ccccc3)cc2C(=O)Nc2nccs2)cc1OC` are > 100 µM (inactive), more than 100 µM, more than 100 µM and more than 100 µM.
On the same counts, the results for `CC(C)(C)c1ccc(OCC(=O)N/N=C/c2cc(Br)ccc2OC(=O)c2ccco2)cc1` are 82.7 µM (inactive), more than 100 µM, more than 100 µM and more than 100 µM.
`O=C(Nc1ccccc1N1CCCC1)c1ccc2c(c1)OCO2`: the IC50 was 72.3 µM (inactive). The molecule further came in with an IC50 under setting [1] of 87.3 µM. Further, the IC90 under setting [2] was more than 100 µM. This molecule also registered a concentration for an effect of 90% (IC90) under setting [3] of more than 100 µM.
As to `O=C(NCC1COc2ccccc2O1)C1CCC(CNc2c(N3CCCCC3)c(=O)c2=O)CC1` (stereo not given), the IC50 was 24 µM (inactive). For the same molecule, the IC50 under setting [1] was 45.9 µM. Under setting [2], this molecule gave a 90% effect concentration (IC90) of 51.7 µM. The same molecule displayed an IC90 under setting [3] of 26.7 µM.
Regarding `COc1c(F)c(F)c(C(=O)Nc2c(C)cc(Br)cc2C)c(F)c1F`, the half-maximal inhibitory concentration (IC50) is 4.58 µM. The same molecule showed an IC50 under setting [1] of more than 100 µM. The same molecule yielded an IC90 under setting [2] of more than 100 µM. In addition, the IC90 under setting [3] was more than 100 µM.
`O=C(O/N=C\c1ccc(N2CCCCC2)c([N+](=O)[O-])c1)c1c(F)cccc1F`: the IC50 is > 100 µM (inactive). This molecule displayed an IC50 under setting [1] of more than 100 µM. The molecule also showed an IC90 under setting [2] of more than 100 µM. The molecule also returned an IC90 under setting [3] of more than 100 µM.
On to `Cc1nnc(SCc2cccc(Cl)c2)n(N)c1=O`, for which the IC50 was 4.43 µM. Besides, under setting [1], the IC50 came out at 12 µM. Moreover, under setting [2], the IC90 was 18.1 µM. The molecule further came in with an IC90 under setting [3] of 10.1 µM.
On the same counts, the results for `CC(C)(C)C1=Nn2c(nnc2-c2ccccc2F)SC1` are 17.3 µM, more than 100 µM, more than 100 µM and 78.3 µM.
The corresponding values for `COC(=O)[C@@]1(Cc2ccc(F)cc2)[C@H]2c3cc(C(=O)N(C)C)n(Cc4ccc(OC)c(OC)c4)c3C[C@H]2CN1C(=O)c1ccccc1` are > 100 µM (inactive), more than 100 µM, more than 100 µM and more than 100 µM.
The corresponding values for `O=C(c1cccc(Cl)c1)N1CCN(Cc2ccccc2F)CC1` are > 100 µM (inactive), more than 100 µM, more than 100 µM and more than 100 µM.
Turning to `CCOc1ccc(N2C(=O)CC(N)C2=O)cc1` (stereo not given), the IC50 was 30.9 µM (inactive). Besides, under setting [1], the IC50 was determined as 45.9 µM. The IC90 under setting [2] is 51.4 µM. Under setting [3], the IC90 is 52.4 µM.
The corresponding values for `O=C(OCC(=O)N1CCc2ccccc21)c1ccc(Cl)nc1` are 22.8 µM (inactive), 44 µM, more than 100 µM and more than 100 µM.
On the same counts, the results for `COc1ccccc1/C=N/NC(=S)Nc1cccnc1` are 31.1 µM, more than 100 µM, more than 100 µM and more than 50 µM.
The corresponding values for `COCCNC(C(=O)Nc1ccc(C)cc1[N+](=O)[O-])c1ccccc1` (stereo not given) are 17.2 µM, 49.1 µM, more than 100 µM and more than 100 µM.
Take `C/C(=N\NC(=S)NCc1ccccc1)c1cccc(Br)c1`: the IC50 is > 100 µM (inactive). In addition, the IC50 under setting [1] was more than 100 µM. Under setting [2], the 90% effect concentration (IC90) was more than 100 µM. For the same molecule, under setting [3], the IC90 is more than 100 µM.
For the molecule `NC(=O)CN1C(=O)C(O)(CC(=O)/C=C\C=C\c2ccccc2)c2ccccc21` (stereo not given), the IC50 is > 100 µM (inactive). Further, the 50% inhibitory concentration (IC50) under setting [1] is more than 100 µM. Under setting [2], this molecule showed an IC90 of more than 100 µM. The same molecule returned a 90% effect concentration (IC90) under setting [3] of more than 100 µM.
For the molecule `CCn1c(SCc2nc(-c3cccs3)no2)nnc1-c1c[nH]c2ccccc12`, the IC50 is > 100 µM (inactive). For the same molecule, under setting [1], the IC50 was more than 100 µM. In addition, the IC90 under setting [2] is more than 100 µM. The molecule further came in with a 90% effect concentration (IC90) under setting [3] of more than 100 µM.
In the case of `Cc1cccc(Cl)c1NC(=S)NN`, the IC50 is 36 µM (inactive). Further, the IC50 under setting [1] stood at 44.5 µM. Besides, the IC90 under setting [2] is 59.5 µM. Moreover, under setting [3], the IC90 stood at 55.1 µM.
On the same counts, the results for `Cc1ccc(NC(=S)Nc2ncccc2C)c(C)c1` are 46.2 µM (inactive), 97.1 µM, more than 100 µM and more than 100 µM.
On the same counts, the results for `O=C(Nc1ccccc1)Nc1csc2ccccc12` are less than 0.2 µM, 23.9 µM, more than 100 µM and 20.9 µM.
Regarding `O=C(Nc1nc2ccccc2[nH]1)c1ccccc1F`, the IC50 is > 100 µM (inactive). Under setting [1], the IC50 was more than 100 µM. The IC90 under setting [2] was more than 100 µM. The molecule also yielded an IC90 under setting [3] of more than 100 µM.
As for `O=C(N/N=C/c1ccc(-c2cccc(C(F)(F)F)c2)o1)c1ccccc1O`, the IC50 was 32.8 µM. This molecule also returned an IC50 under setting [1] of more than 100 µM. In addition, under setting [2], the IC90 was more than 100 µM. In addition, under setting [3], the IC90 was more than 100 µM.
In the case of `O=C1C2ON(c3ccc(Br)cc3)C(c3cccnc3)C2C(=O)N1C1CCCCC1` (stereo not given), the IC50 is > 100 µM (inactive). Moreover, under setting [1], the IC50 is more than 100 µM. Also, the IC90 under setting [2] is more than 100 µM. Under setting [3], this molecule gave an IC90 of more than 100 µM.
On to `COc1ccc(OC)c(NC(=O)CS(=O)(=O)c2ccccc2)c1`, for which the IC50 is 12.1 µM (inactive). The IC50 under setting [1] was determined as 28.7 µM. The IC90 under setting [2] was more than 100 µM. Under setting [3], the IC90 was 14.3 µM.
